For data set [1], the system named is Plasmopara Viticola. In words: whole plant or invertebrate. The conditions noted are these: foliar, read-out: disease control. The format is in vivo.
In data set [2] the test system is Gaeumannomyces Graminis. As to the kind of experiment: Gaeumannomyces graminis / liquid culture (take-all of cereals). The class given is cell-based. The conditions noted are these: PDB potato dextrose broth, 24° C., 4-5 days after application, read-out: disease control (inhibition of growth, photometrically). A digest of the protocol: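 Mycelial fragments from cryogenic storage mixed into potato dextrose broth and added to test compound in DMSO. Incubated at 24° C; growth inhibition read photometrically 4-5 days after application.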

Data set [3] concerns Fusarium Culmorum. As to the kind of experiment: microbe, parasite or virus in culture. The class given is cell-based. Conditions: read-out: disease control (inhibition of growth, photometrically).
Data set [4] relates to Mycosphaerella Graminicola(Septoria Tritici). As to the kind of experiment: Mycosphaerella graminicola (Septoria tritici) / liquid culture (Septoria blotch). The conditions noted are these: Zymoseptoria tritici, PDB potato dextrose broth, 24° C., 4-5 days after application, read-out: disease control (inhibition of growth, photometrically). The format is cell-based. A digest of the protocol: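 Cryostored conidia mixed into potato dextrose broth and added to compound dispensed from DMSO solution. Incubation at 24 °C; growth inhibition read photometrically 4-5 days after application.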

For data set [5], the system named is Puccinia Recondita f. sp. Tritici. In words: Puccinia recondita f. sp. tritici / wheat / leaf disc preventative (brown rust). The class given is in vivo. Conditions: foliar, wheat leaf segments cv Kanzler, inoculated 1 day after application, assessed 7-9 days after application, read-out: disease control. On the procedure:
3 Puccinia Recondita f. sp. Tritici/Wheat/Leaf Disc Preventative (Brown Rust) Wheat leaf segments cultivated variety (cv) Kanzler were placed on agar in 24-well plates and sprayed with formulated test compound diluted in water. The leaf disks were inoculated with a spore suspension of the fungus 1 day after application. The inoculated leaf segments were incubated at 19° C. and 75% relative humidity under a light regime of 12/12 h (light/dark) in a climate cabinet and the activity of a compound was assessed as percent disease control compared to untreated when an appropriate level of disease damage appears in untreated check leaf segments (7-9 days after application).

Data set [6] deals with Pythium Ultimum. In words: Pythium ultimum / liquid culture (seedling damping off). The class given is cell-based. Conditions: Globisporangium ultimum, potato dextrose broth, 24° C., 2-3 days after application, read-out: disease control (inhibition of growth, photometrically).
For data set [7], the system named is Monographella Nivalis(Microdochium Nivale). In words: Monographella nivalis (Microdochium nivale) / liquid culture (foot rot cereals). The class given is cell-based. Conditions: PDB potato dextrose broth, 24° C., 4-5 days after application, read-out: disease control (inhibition of growth, photometrically). The method, boiled down: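 Conidia from cryogenic storage mixed into potato dextrose broth, added to compound pre-dispensed from DMSO solution. Incubated at 24° C.; growth inhibition read photometrically 4-5 days after application.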

Data set [8] has as its system Glomerella Lagenarium(Colletotrichum Ladenarium). As to the kind of experiment: Glomerella lagenarium (Colletotrichum lagenarium) / liquid culture (anthracnose). The class given is cell-based. Conditions: PDB potato dextrose broth, 24° C., 3-4 days after application, read-out: disease control (inhibition of growth, photometrically). The method, boiled down: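 Cryostored conidia were suspended in potato dextrose broth and added to compound in DMSO. Cultures were incubated at 24 °C. Growth inhibition was measured photometrically 3–4 days after application.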

The subject of data set [9] is Thanatephorus Cucumeris(Rhizoctonia Solani). In words: Thanatephorus cucumeris (Rhizoctonia solani) / liquid culture (foot rot, damping-off). The class given is cell-based. The conditions noted are these: PDB potato dextrose broth, 24° C., 3-4 days after application, read-out: disease control (inhibition of growth, photometrically). The procedure: 16 Thanatephorus Cucumeris(Rhizoctonia Solani)/Liquid Culture (Foot Rot, Damping-Off) Mycelia fragments of a newly grown liquid culture of the fungus were directly mixed into nutrient broth (PDB potato dextrose broth). After placing a DMSO solution of the test compounds into a 96-well microtiter plate at an application rate of 200 ppm, the nutrient broth containing the fungal material was added. The test plates were incubated at 24° C. and the inhibition of growth was determined photometrically 3-4 days after application.

Data set [10] has as its system Botryotinia Fuckeliana(Botrytis Cinerea). In words: Botryotinia fuckeliana (Botrytis cinerea) / liquid culture (gray mould). The format is cell-based. The conditions noted are these: Vogels broth, 24° C., 3-4 days after application, read-out: disease control (inhibition of growth, photometrically). On the procedure:
9 Botryotinia Fuckeliana(Botrytis Cinerea)/Liquid Culture (Gray Mould) Conidia of the fungus from cryogenic storage were directly mixed into nutrient broth (Vogels broth). After placing a DMSO solution of test compound into a 96-well microtiter plate, the nutrient broth containing the fungal spores was added. The test plates were incubated at 24° C. and the inhibition of growth was determined photometrically 3-4 days after application.

The test system of data set [11] is Sclerotinia Sclerotiorum. In words: Sclerotinia sclerotiorum / liquid culture (cottony rot). The class given is cell-based. The conditions noted are these: PDB potato dextrose broth, 24° C., 3-4 days after application, read-out: disease control (inhibition of growth, visually). The method, boiled down:
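Mycelial fragments from fresh liquid culture in potato dextrose broth added to test compounds in DMSO. Incubated at 24° C; growth inhibition scored visually 3-4 days after application.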

Data set [12] deals with Mycosphaerella Arachidis(Cercospora Arachidicola). In words: Mycosphaerella arachidis (Cercospora arachidicola) / liquid culture (early leaf spot). The format is cell-based. The conditions noted are these: PDB potato dextrose broth, 24° C., 4-5 days after application, read-out: disease control (inhibition of growth, photometrically). A digest of the protocol: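 Cryo-stored conidia in potato dextrose broth were added to compound in DMSO in microtiter plates. After incubation at 24 °C, growth inhibition was measured photometrically 4-5 days after application.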

Data set [13] concerns Phaeosphaeria Nodorum (Septoria Nodorum). As to the kind of experiment: Phaeosphaeria nodorum (Septoria nodorum) / wheat / leaf disc preventative (glume blotch). The conditions noted are these: Parastagonospora nodorum, foliar, wheat leaf segments cv Kanzler, inoculated 2 days after application, assessed 5-7 days after application, read-out: disease control. The format is in vivo. On the procedure: 5 Phaeosphaeria Nodorum (Septoria Nodorum)/Wheat/Leaf Disc Preventative (Glume Blotch) Wheat leaf segments cv Kanzler were placed on agar in a 24-well plate and sprayed with formulated test compound diluted in water. The leaf disks were inoculated with a spore suspension of the fungus 2 days after application. The inoculated test leaf disks were incubated at 20° C. and 75% relative humidity under a light regime of 12/12 h (light/dark) in a climate cabinet and the activity of a compound was assessed as percent disease control compared to untreated when an appropriate level of disease damage appears in untreated check leaf disks (5-7 days after application).

Take `Cc1nc(C)c(-c2cc3c(cc2Cl)COB3O)s1` [Compound 1]: the melting point is 155 to 160 °C. The pest or weed control at 200 ppm in data set [1] was at least 80%. Besides, the inhibition at 20 ppm in data set [2] was at least 80%. For the same compound, the inhibition at 20 ppm in data set [3] is at least 80%. Besides, the inhibition at 20 ppm in data set [4] was at least 80%. Also, in data set [5], the pest or weed control at 200 ppm was at least 80%. Further, the inhibition at 20 ppm in data set [6] is at least 80%. In addition, the inhibition at 20 ppm in [7] was at least 80%.
Turning to `OB1OCc2cc(F)c(-c3cccs3)cc21` [Compound 6], the melting point fell in the range of 134 to 140 °C. Moreover, in data set [1], the pest or weed control at 200 ppm is at least 80%. The inhibition at 20 ppm in data set [2] was at least 80%. In addition, the inhibition at 20 ppm in data set [3] was at least 80%. In addition, the inhibition at 20 ppm in data set [4] is at least 80%. The pest or weed control at 200 ppm in data set [5] was at least 80%. The inhibition at 20 ppm in data set [8] was at least 80%. Moreover, the inhibition at 20 ppm in data set [9] is at least 80%. For the same compound, in data set [6], the inhibition at 20 ppm was at least 80%. In addition, the inhibition at 20 ppm in data set [10] was at least 80%. In addition, the inhibition at 20 ppm in data set [11] is at least 80%. Further, the inhibition at 20 ppm in data set [7] was at least 80%. Moreover, the inhibition at 20 ppm in data set [12] was at least 80%.
`OB1OCc2cc(F)c(-c3ccsc3)cc21` [Compound 12, 5-fluoro-1-hydroxy-6-(3-thienyl)-3H-2,1-benzoxaborole]: the pest or weed control at 200 ppm in [1] and in data set [5] was at least 80% throughout. The inhibition at 20 ppm in data set [2], in data set [3], in [4], in [9], in data set [6] and in [10] was at least 80% each time. For the same compound, the inhibition at 20 ppm in data set [11], in data set [7] and in [12] was at least 80% throughout.
`OB1OCc2cc(Cl)c(-c3ncno3)cc21` [Compound 14, 5-(5-chloro-1-hydroxy-3H-2,1-benzoxaborol-6-yl)-1,2,4-oxadiazole] registered a melting point of 175 to 177 °C. Besides, in data set [1], the pest or weed control at 200 ppm was at least 80%. Besides, in [2], the inhibition at 20 ppm was at least 80%. For the same compound, the inhibition at 20 ppm in data set [3] is at least 80%. Moreover, the inhibition at 20 ppm in [4] was at least 80%. The pest or weed control at 200 ppm in [5] is at least 80%. For the same compound, the inhibition at 20 ppm in data set [8] is at least 80%. Moreover, the inhibition at 20 ppm in data set [9] is at least 80%. For the same compound, the inhibition at 20 ppm in data set [6] is at least 80%. Besides, the inhibition at 20 ppm in data set [10] is at least 80%. Besides, the inhibition at 20 ppm in [11] is at least 80%. Moreover, the inhibition at 20 ppm in data set [7] is at least 80%. The inhibition at 20 ppm in [12] is at least 80%.
As for `CO/N=C/c1ccc(-c2cc3c(cc2F)COB3O)o1` [Compound 28], the melting point is 125 to 140 °C. Besides, in [4], the inhibition at 20 ppm was at least 80%. Moreover, the pest or weed control at 200 ppm in [5] was at least 80%. For the same compound, the inhibition at 20 ppm in data set [8] was at least 80%. Besides, in data set [6], the inhibition at 20 ppm is at least 80%.
With `Cc1ccc(-c2cc3c(cc2Cl)COB3O)s1` [Compound 38], the pest or weed control at 200 ppm in [1] and in data set [5] was at least 80% in each case. The inhibition at 20 ppm in data set [2], in data set [3], in data set [4], in data set [8], in data set [9] and in data set [6] was at least 80% each time. The inhibition at 20 ppm in data set [10], in data set [11], in [7] and in [12] was at least 80% each time.
Consider `COc1nccc(-c2cc3c(cc2Cl)COB3O)c1Cl` [Compound 73], for which the pest or weed control at 200 ppm in [1] and in data set [5] was at least 80% in each case. Moreover, the inhibition at 20 ppm in data set [2], in data set [3], in [4], in data set [8], in data set [9] and in data set [6] was at least 80% throughout. Also, the inhibition at 20 ppm in data set [10], in [11], in data set [7] and in data set [12] was at least 80% throughout.
Consider `OB1OCc2cc(F)c(-c3ccsc3Cl)cc21` [Compound 79], for which the pest or weed control at 200 ppm in [1], in data set [5] and in data set [13] was at least 80% throughout. Also, the inhibition at 20 ppm in [2], in data set [4], in [8], in [9], in data set [6] and in data set [11] was at least 80% in each case. The inhibition at 20 ppm in [7] and in [12] was at least 80% in each case.
As for `Cc1cc(-c2cc3c(cc2Cl)COB3O)c(C)s1` [Compound 90], the inhibition at 20 ppm in [2], in data set [4], in [8], in [9], in data set [6] and in [7] was at least 80% each time. Besides, the inhibition at 20 ppm in data set [12] was at least 80%. For the same compound, the pest or weed control at 200 ppm in [5] is at least 80%.
As to `OB1OCc2ccc(-c3ncon3)cc21` [Compound 92], the melting point lay in the range of 209 to 211 °C. Besides, in data set [2], the inhibition at 20 ppm is at least 80%. The inhibition at 20 ppm in data set [3] was at least 80%. The inhibition at 20 ppm in [4] is at least 80%. Further, the pest or weed control at 200 ppm in data set [5] was at least 80%. The inhibition at 20 ppm in [8] was at least 80%. The inhibition at 20 ppm in data set [9] is at least 80%. For the same compound, the inhibition at 20 ppm in data set [6] was at least 80%. Also, the inhibition at 20 ppm in [10] was at least 80%. Besides, the inhibition at 20 ppm in [11] was at least 80%. Moreover, in data set [7], the inhibition at 20 ppm is at least 80%. Further, the inhibition at 20 ppm in [12] is at least 80%.
As to `OB1OCc2cc(Cl)c(-c3ncon3)cc21` [Compound 96], the melting point is 180 to 203 °C. The inhibition at 20 ppm in data set [2] was at least 80%. Moreover, the inhibition at 20 ppm in data set [3] was at least 80%. Also, the inhibition at 20 ppm in [4] is at least 80%. The pest or weed control at 200 ppm in data set [5] is at least 80%. Further, in data set [8], the inhibition at 20 ppm is at least 80%. Moreover, the inhibition at 20 ppm in data set [9] was at least 80%. Besides, the inhibition at 20 ppm in [6] is at least 80%. In addition, the inhibition at 20 ppm in [10] was at least 80%. Moreover, the inhibition at 20 ppm in data set [11] was at least 80%. Moreover, in data set [7], the inhibition at 20 ppm was at least 80%. Besides, in data set [12], the inhibition at 20 ppm was at least 80%.

The values above are taken from patent publication US10314308B2, “Microbiocidal benzoxaboroles” (SYNGENTA PARTICIPATIONS AG, priority 2015, dated 2019).
